From US20040186166A1, “Cannabinoid analogs as peroxisome proliferator activated nuclear receptor gamma activators” (priority 2002, published 2004)

Key:
COX-1 = COX-1 (Homo sapiens, UniProt P23219); conditions: 0.25-25 μM, Zurier et al. 1998; cited from earlier work
human IL-8 promoter = assay: IL-8 promoter luciferase assay, HeLa cells with PPARγ ΔAF2 mutant; assay type: cell-based; conditions: cells transfected with PPARγ ΔAF2 mutant
Procedure: For PPARγ activation assay, HEK293 cells were plated in 12-well cell culture plates and maintained in Dulbecco's modified Eagle's medium (DMEM) supplemented with 10% fetal bovine serum (FBS) at 37° C. under 5% CO2. Cells were changed to phenol red-free DMEM supplemented with 10% charcoal-stripped fetal bovine serum 3 hours before transfection by a standard calcium-phosphate precipitation method. Twelve hours after transfection, the cells were washed with phosphate-buffered saline (PBS) and fed again with fresh medium containing the indicated concentrations of compounds. After 36 hours, cells were harvested for β-galactosidase and luciferase activities as described previously (Li et al., Proc Natl Acad Sci USA 94:8479-84, 1997). The average normalized luciferase activity was determined via triplicate experiments. For IL-8 promoter assay, HeLa cells were maintained and transfected in the same way as described above. After transfection, cells were recovered for 4 hours before treatment with AJA, GW347845, or solvent. […]
The IL-8 luciferase reporter controlled by the human IL-8 promoter (-97/-69) was cotransfected with mPPARγ or mPPARγ ΔAF2 mutant into HeLa cells. […] The involvement of PPARγ in regulating IL-8 promoter activity was determined by comparing the IL-8 promoter activity in the presence of wild type PPARγ or its ΔAF2 mutant. […]

COX-2 = biological target: T1, COX-2 (Homo sapiens, UniProt P35354); conditions: Zurier et al. 1998; cited from earlier work
T1 sequence (P35354 18-604): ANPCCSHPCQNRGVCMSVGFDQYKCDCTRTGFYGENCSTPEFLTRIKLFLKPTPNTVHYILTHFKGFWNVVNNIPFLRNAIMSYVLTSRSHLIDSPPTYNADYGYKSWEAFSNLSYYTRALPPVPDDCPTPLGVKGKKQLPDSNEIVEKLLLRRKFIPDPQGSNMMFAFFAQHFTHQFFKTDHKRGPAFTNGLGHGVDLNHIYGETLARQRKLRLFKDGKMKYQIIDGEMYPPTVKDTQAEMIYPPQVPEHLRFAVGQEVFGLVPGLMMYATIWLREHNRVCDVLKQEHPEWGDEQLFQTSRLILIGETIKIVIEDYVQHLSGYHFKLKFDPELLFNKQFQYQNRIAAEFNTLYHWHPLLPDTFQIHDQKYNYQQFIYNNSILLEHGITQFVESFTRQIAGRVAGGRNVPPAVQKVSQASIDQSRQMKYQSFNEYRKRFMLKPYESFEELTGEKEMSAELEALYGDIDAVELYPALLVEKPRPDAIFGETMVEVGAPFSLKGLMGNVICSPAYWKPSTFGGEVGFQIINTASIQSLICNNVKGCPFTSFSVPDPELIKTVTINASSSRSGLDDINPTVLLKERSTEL

[1] = adjuvant-induced poly-arthritis, rats; cited from earlier work

COX-1, sequence (P23219 24-599): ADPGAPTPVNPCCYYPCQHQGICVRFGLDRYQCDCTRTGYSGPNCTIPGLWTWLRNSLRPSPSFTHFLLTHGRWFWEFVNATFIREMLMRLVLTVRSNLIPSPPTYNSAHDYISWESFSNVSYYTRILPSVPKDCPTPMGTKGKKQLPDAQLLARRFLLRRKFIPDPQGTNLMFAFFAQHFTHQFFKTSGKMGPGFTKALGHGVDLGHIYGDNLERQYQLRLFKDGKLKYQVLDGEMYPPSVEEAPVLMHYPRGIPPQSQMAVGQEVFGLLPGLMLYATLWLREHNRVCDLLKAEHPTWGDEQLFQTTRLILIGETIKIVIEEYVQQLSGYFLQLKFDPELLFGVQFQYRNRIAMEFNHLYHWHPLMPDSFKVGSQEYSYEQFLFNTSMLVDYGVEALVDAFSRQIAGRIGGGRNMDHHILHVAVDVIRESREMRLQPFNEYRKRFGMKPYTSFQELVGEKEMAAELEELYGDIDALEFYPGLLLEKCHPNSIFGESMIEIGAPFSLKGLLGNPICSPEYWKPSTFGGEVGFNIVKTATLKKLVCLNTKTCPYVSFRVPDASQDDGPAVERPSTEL

SMILES: CCCCCCC(C)(C)c1cc(O)c2c(c1)OC(C)(C)[C@@H]1CC=C(C(=O)O)C[C@@H]21 [AJA, dimethylheptyl-THC-11-oic acid]
- effect on COX-1 activity (COX-1): no effect
- effect on IL-8 promoter activity (human IL-8 promoter): no effect
- concentration range suppressing COX-2 activity (COX-2): 1 to 10 µM
- chronic joint inflammation [1]: suppress
